The values below come from PubChem BioAssay (NCI).

Some test systems named below: A549 NSCLC; HL-60(TB) leukemia; HOP-92 NSCLC; IGROV1 ovarian; MALME-3M melanoma; MDA-MB-231 breast; OVCAR-3 ovarian; SK-MEL-5 melanoma; UACC-257 melanoma; NCI/ADR-RES ovarian.
Common to all, as to assay: NCI tumour cell line growth inhibition, 48 h

SMILES strings stand for the structures. Values joined by “and” are separate entries in the source; they are usually repeats but may differ in a detail not shown here. Identical values can stand only once.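 Step 1: Grow cells in 96-well plates. Step 2: Expose to compound for 48 hours at 5 concentrations. Step 3: Interpolate endpoints linearly; if unreached, use highest concentration. The concentration for 50% growth inhibition is given as GI50. TGI: concentration producing complete growth inhibition.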

With `Cc1ccc2oc(=O)c3c(O)c4cccc(OC5OC(C)C6O[C@@H](c7ccccc7)OC6C5OC5OC(C)C(O)C(O)C5O)c4c4oc(=O)c1c2c34` (some centres undefined), the GI50 with A549 NSCLC is 0.0214 µM; in the assay with HL-60(TB) leukemia it was 0.0418 µM; with HOP-92 NSCLC, 0.333 µM; in the assay with IGROV1 ovarian it was 0.0315 µM; in the assay on MALME-3M melanoma it was 0.126 µM; in the assay on SK-MEL-5 melanoma, 0.114 µM. Also, the GI50 with UACC-257 melanoma is 0.309 µM. Besides, the TGI in the assay with A549 NSCLC was 0.521 µM and 0.924 µM; with HL-60(TB) leukemia, 0.7 µM and 0.361 µM; in the assay on HOP-92 NSCLC it was 2.22 µM and 2.13 µM; in the assay with IGROV1 ovarian, 1.39 µM and 1.32 µM; in the assay on MALME-3M melanoma, 1.58 µM and 2.52 µM; in the assay on MDA-MB-231 breast, 1.35 µM. Also, the TGI with OVCAR-3 ovarian is 3.96 µM; in the assay on SK-MEL-5 melanoma it was 1.09 µM and 0.7 µM; with UACC-257 melanoma, 1.82 µM and 2.12 µM.

Take `O=c1cc[nH]cc1-c1c[nH]ccc1=O`: the TGI in the assay with A549 NSCLC, with HL-60(TB) leukemia, with HOP-92 NSCLC, with IGROV1 ovarian, in the assay with MALME-3M melanoma and with OVCAR-3 ovarian was above 100 µM each time. Besides, the TGI in the assay on SK-MEL-5 melanoma and in the assay on UACC-257 melanoma was above 100 µM throughout.

Take `CN1CCN=C1c1nnn(-c2ccc([N+](=O)[O-])cc2)c1-c1ccccc1`: the TGI was above 100 µM in the assay with A549 NSCLC; 61.4 µM in the assay with HL-60(TB) leukemia; 94.5 µM with HOP-92 NSCLC; above 100 µM with IGROV1 ovarian; above 100 µM in the assay with MALME-3M melanoma; above 100 µM in the assay on OVCAR-3 ovarian. Further, the TGI in the assay with SK-MEL-5 melanoma and with UACC-257 melanoma was above 100 µM throughout.

For `O=[N+]([O-])c1cc(/C=N\NS(=O)(=O)c2ccc(Cl)cc2)c(O)c([N+](=O)[O-])c1`, the TGI was above 100 µM with A549 NSCLC; 54 µM with HL-60(TB) leukemia; above 100 µM with HOP-92 NSCLC; above 100 µM in the assay on IGROV1 ovarian; above 100 µM in the assay with MALME-3M melanoma; 54.1 µM with OVCAR-3 ovarian. The TGI with SK-MEL-5 melanoma was 66.6 µM; in the assay on UACC-257 melanoma, above 100 µM.

Consider `C=CCC12CC(=O)CCC1c1ccc(OC)cc1C2=O` (centres undefined), for which the TGI in the assay on A549 NSCLC, in the assay on HL-60(TB) leukemia, in the assay on HOP-92 NSCLC, in the assay on IGROV1 ovarian, in the assay with MALME-3M melanoma and in the assay on OVCAR-3 ovarian was above 100 µM throughout. The TGI with SK-MEL-5 melanoma and in the assay on UACC-257 melanoma was above 100 µM each time.

For the compound `COc1cc2c(cc1OC)C(C(CBr)CBr)N(C1CCCC1)CC2` (centres undefined), the TGI in the assay on A549 NSCLC, with HL-60(TB) leukemia, in the assay with HOP-92 NSCLC, with IGROV1 ovarian, with MALME-3M melanoma and in the assay with OVCAR-3 ovarian was above 100 µM each time. In addition, the TGI with SK-MEL-5 melanoma and with UACC-257 melanoma was above 100 µM throughout.

For `CC(C)N(C(=O)C12C3C4C5(C(=O)O)C(C1C35I)C42C(=O)O)C(C)C` (centres undefined), the TGI with A549 NSCLC, in the assay with HL-60(TB) leukemia, with HOP-92 NSCLC, in the assay on IGROV1 ovarian, in the assay with MALME-3M melanoma and with OVCAR-3 ovarian was above 100 µM in each case. In addition, the TGI with SK-MEL-5 melanoma and in the assay with UACC-257 melanoma was above 100 µM each time.

As for `COc1cc(/C=C/C(=O)CC(=O)/C=C/c2cc(OC)c(O)c(OC)c2)cc(OC)c1O`, the GI50 with A549 NSCLC is 16.6 µM; in the assay with IGROV1 ovarian it was 11 µM; in the assay on MALME-3M melanoma it was 14.8 µM; in the assay on MDA-MB-231 breast it was 9.37 µM; with NCI/ADR-RES ovarian, above 100 µM; in the assay on OVCAR-3 ovarian it was 18.6 µM. For the same compound, the GI50 with SK-MEL-5 melanoma is 13.2 µM; with UACC-257 melanoma it was 23.5 µM. Moreover, the TGI with A549 NSCLC was 25 µM and > 100 µM; in the assay with HL-60(TB) leukemia, 25 µM and 42.6 µM; in the assay on IGROV1 ovarian, 10.8 µM and 32.2 µM; with MALME-3M melanoma, 25 µM and 30.6 µM; with MDA-MB-231 breast, 25 µM and 32.6 µM; with NCI/ADR-RES ovarian, above 100 µM. Moreover, the TGI with OVCAR-3 ovarian is 17.3 µM and > 100 µM; in the assay with SK-MEL-5 melanoma, 25 µM and 36.4 µM; in the assay with UACC-257 melanoma, 25 µM and > 100 µM.

With `CCCCCCC(=O)C/C(CCC(=O)N(Cc1ccccc1)Cc1ccccc1)=N\NC(N)=O`, the TGI in the assay with A549 NSCLC, in the assay on HL-60(TB) leukemia, in the assay on HOP-92 NSCLC, with IGROV1 ovarian, in the assay with MALME-3M melanoma and in the assay on OVCAR-3 ovarian was above 100 µM throughout. The TGI in the assay with SK-MEL-5 melanoma and in the assay with UACC-257 melanoma was above 100 µM in each case.

Consider `O=C1CC(C2(O)C(=O)Nc3ccc([N+](=O)[O-])cc32)c2ccccc21` (centres undefined), for which the TGI in the assay with A549 NSCLC was above 100 µM; in the assay with HL-60(TB) leukemia it was 45.3 µM; with HOP-92 NSCLC it was 85.4 µM; with IGROV1 ovarian it was 45.1 µM; in the assay with MALME-3M melanoma, above 100 µM; in the assay with OVCAR-3 ovarian, 67.7 µM. The figures for the TGI in the assay with SK-MEL-5 melanoma and in the assay with UACC-257 melanoma were 75.6 µM and above 100 µM, respectively.

In the case of `CCCC(O)c1cn(-c2cccc(S(=O)(=O)O)c2)nn1` (centres undefined), the TGI in the assay with A549 NSCLC, in the assay with HL-60(TB) leukemia, with HOP-92 NSCLC, in the assay on IGROV1 ovarian, with MALME-3M melanoma and in the assay on OVCAR-3 ovarian was above 100 µM each time. Also, the TGI in the assay with SK-MEL-5 melanoma and with UACC-257 melanoma was above 100 µM in each case.

Regarding `CC1=NN(c2ccccc2)C(=O)C12[C@H](c1ccccc1)C2(C#N)C#N` (some centres undefined), the TGI was 31.9 µM in the assay with A549 NSCLC; 7.81 µM with HL-60(TB) leukemia; 7.81 µM with HOP-92 NSCLC; 28.1 µM in the assay on IGROV1 ovarian; 11.6 µM with MALME-3M melanoma; 19.5 µM with OVCAR-3 ovarian. For the same compound, the figures for the TGI with SK-MEL-5 melanoma and in the assay on UACC-257 melanoma were 14.3 µM and 18.4 µM, respectively.

Consider `O=C1C(Cl)=C(Cl)C(=O)N1c1ccc(Cl)c(Cl)c1Cl`, for which the TGI with A549 NSCLC is above 100 µM; in the assay with HL-60(TB) leukemia it was 46.2 µM; with HOP-92 NSCLC, 88.5 µM; with IGROV1 ovarian, above 100 µM; with MALME-3M melanoma it was above 100 µM; in the assay with OVCAR-3 ovarian it was above 100 µM. The TGI with SK-MEL-5 melanoma and in the assay on UACC-257 melanoma was above 100 µM in each case.

In the case of `Cc1cc(=O)[nH]c(N/N=C/c2ccccc2O)n1`, the GI50 in the assay on A549 NSCLC was 4.4 µM; in the assay on HL-60(TB) leukemia, 4.26 µM; in the assay with IGROV1 ovarian, 3.77 µM; in the assay with MALME-3M melanoma, 4.49 µM; in the assay with MDA-MB-231 breast, 6.05 µM; in the assay with NCI/ADR-RES ovarian, 3.52 µM. Moreover, the GI50 in the assay on OVCAR-3 ovarian was 4.15 µM; in the assay on SK-MEL-5 melanoma, 4.19 µM; with UACC-257 melanoma, 3.67 µM. Further, the TGI in the assay with A549 NSCLC is above 100 µM; in the assay on HL-60(TB) leukemia, 50.1 µM; in the assay on IGROV1 ovarian it was above 100 µM; in the assay on MALME-3M melanoma, above 100 µM; in the assay on MDA-MB-231 breast it was above 100 µM; with NCI/ADR-RES ovarian it was above 100 µM. The TGI was above 100 µM with OVCAR-3 ovarian, 19.1 µM with SK-MEL-5 melanoma and 34.7 µM in the assay with UACC-257 melanoma.
